Reference: patent US20160278375A1, “BISCATIONIC AND TRISCATIONIC AMPHIPHILES AS ANTIMICROBIAL AGENTS” (Temple University of the Commonwealth System of Higher …, priority 2013, published 2016)
Like-named read-outs stand apart in the source and are kept apart here.

Legend:
Assay in all cases: MIC determination by two-fold serial dilution in 96-well microtiter plates
Type in all cases: cell-based
[1] = system: Pseudomonas aeruginosa (PAO1-WT)
Protocol: (§1) For the compounds above, respective minimum inhibitory concentration (MIC) values against the Gram-positive S. aureus, E. faecalis, Gram-negative E. coli and P. aeruginosa were determined, respectively, by standard methods. […] Cell viability was verified by serial dilution and plating on MH agar. Both aqueous and fresh media positive controls were performed for each trial. Overnight bacterial cultures of Staphylococcus aureus (SH1000), Enterococcus faecalis (OG1RF), Escherichia coli (MC4100), and Pseudomonas aeruginosa (PAO1-WT) were grown in Mueller-Hinton broth at 37° C., with all but E. faecalis under shaking Overnight cultures were diluted to approximately 10^6 cfu/mL as determined by OD measurement at 640 nm and plating on MH agar.
(§2) Each compound was serially diluted two-fold with water from 1 mM down to 1 μM yielding twelve dilutions per compound. In triplicate, 100 µL of each dilution were pipetted into the appropriate well of a 96-well microtiter plate, and then […] of overnight bacterial culture diluted to ca. 10^6 cfu/mL were inoculated into each well. Microtiter plates were incubated at 37° C. for 72 hours. Up to seven compounds were tested against one bacterial species at twelve decreasing concentrations per 96-well plate.

[2] = system: Escherichia coli (MC4100); settings: for MIC E. coli: Table 2, trisamine compounds; for MIC: Escherichia coli
Protocol: as §1, §2

[3] = system: Staphylococcus aureus (SH1000)
Protocol: as §1, §2

[4] = system: Enterococcus faecalis (OG1RF)
Protocol: as §1, §2

[5] = Table 2, trisamine compounds, read-out: MIC P aeruginosa
[6] = Table 2, trisamine compounds, read-out: MIC S. aureus
[7] = Table 2, trisamine compounds, read-out: MIC E faecalis
[8] = Pseudomonas aeruginosa, PAO1, Table 1, 37° C., 72 hours, read-out: MIC, Gram negative P. aeruginosa
[9] = 72 h, read-out: MIC, Gram negative E. coli
[10] = Staphylococcus aureus, Table 1, 37° C., 72 hours, read-out: MIC, Gram positive S. aureus
[11] = Enterococcus faecalis, Table 1, 37° C., 72 hours, read-out: MIC, Gram positive E. faecalis
[12] = Table 1, 37° C., 72 hours, read-out: MIC, Gram negative E. coli

Structure (SMILES) | MIC [1, 8] [µM] | MIC [2, 9] [µM] | MIC [3, 10] [µM] | MIC [4, 11] [µM] | also measured
CCCCCCCCCC[N+](C)(C)CCN(C)CC[N+](C)(C)CCCCCCCCCC.[Br-].[Br-] [10, 2, 0, 2, 10] |  |  |  |  | MIC [1, 5]: 32 µM; MIC E. coli [2]: 8 µM; MIC [3, 6]: 2 µM; MIC [4, 7]: 8 µM
CCCCCCCCCCCC[N+](C)(C)CCN(C)CC[N+](C)(C)CCCCCCCCCCCC.[Br-].[Br-] [12, 2, 0, 2, 12] |  |  |  |  | MIC [1, 5]: 4 µM; MIC E. coli [2]: 1 µM; MIC [3, 6]: 1 µM; MIC [4, 7]: 2 µM
CCCCCCCCCCCCCC[N+](C)(C)CCN(C)CC[N+](C)(C)CCCCCCCCCCCCCC [14, 2, 0, 2, 14] |  |  |  |  | MIC ([1]; Pseudomonas aeruginosa, PAO1, Table 2, trisamine compounds, read-out: MIC P aeruginosa): 32 µM; MIC ([2]; read-out: MIC E. coli): 4 µM; MIC ([3]; Staphylococcus aureus, Table 2, trisamine compounds, read-out: MIC S. aureus): 2 µM; MIC ([4]; Enterococcus faecalis, Table 2, trisamine compounds, read-out: MIC E faecalis): 2 µM
CCCCCCCC[N+](C)(C)CC[N+](C)(C)CCCCCCCC [(8, 2, 8)] | 500 | 250 | 32 | 500 | 
CCCCCCCCCC[N+](C)(C)CCN(C)C [(10, 2, 0)] | 250 |  | 63 | 250 | MIC [2, 12]: 250 µM
CCCCCCCCCC[N+](C)(C)CC[N+](C)(C)CCCCCCCC [(10, 2, 8)] | 125 | 63 | 8 | 63 | 
CCCCCCCCCC[N+](C)(C)CC[N+](C)(C)CCCCCCCCCC [(10, 2, 10)] | 8 | 16 | 2 | 8 | 
CCCCCCCCCCC[N+](C)(C)CC[N+](C)(C)CCCCCCCCCC [(11, 2, 10)] |  | 4 |  |  | MIC ([1]; Pseudomonas aeruginosa, PAO1, 72 h, read-out: MIC, Gram negative P. aeruginosa): 4 µM; MIC ([3]; Staphylococcus aureus, 72 h, read-out: MIC, Gram positive S. aureus): 1 µM; MIC ([4]; Enterococcus faecalis, 72 h, read-out: MIC, Gram positive E. faecalis): 4 µM
CCCCCCCCCCCC[N+](C)(C)CCN(C)C [(12, 2, 0)] | 250 |  | 32 | 63 | MIC [2, 12]: 63 µM
CCCCCCCCCCCC[N+](C)(C)CC[N+](C)(C)CCCCCCCC [(12, 2, 8)] | 4 | 4 | 1 | 4 | 
CCCCCCCCCCCC[N+](C)(C)CC[N+](C)(C)CCCCCCCCCC [(12, 2, 10)] | 2 | 2 | 1 | 2 | 
CCCCCCCCCCCC[N+](C)(C)CC[N+](C)(C)CCCCCCCCCCCC [(12, 2, 12)] | 4 | 2 | 1 | 1 | 
CCCCCCCCCCCCCC[N+](C)(C)CCN(C)C [(14, 2, 0)] | 125 |  | 2 | 8 | MIC [2, 12]: 16 µM
CCCCCCCCCCCCCC[N+](C)(C)CC[N+](C)(C)CCCCCCCC [(14, 2, 8)] | 4 | 2 | 1 | 2 | 
CCCCCCCCCCCCCC[N+](C)(C)CC[N+](C)(C)CCCCCCCCCC [(14, 2, 10)] | 4 | 2 | 4 | 1 | 
CCCCCCCCCCCCCC[N+](C)(C)CC[N+](C)(C)CCCCCCCCCCCC [(14, 2, 12)] | 8 | 2 | 1 | 2 | 
CCCCCCCCCCCCCC[N+](C)(C)CC[N+](C)(C)CCCCCCCCCCCCCC [(14, 2, 14)] | 32 | 4 | 4 | 2 | 
CCCCCCCCCCCCCCCC[N+](C)(C)CCN(C)C [(16, 2, 0)] | 16 |  | 1 | 16 | MIC [2, 12]: 16 µM
CCCCCCCCCCCCCCCC[N+](C)(C)CC[N+](C)(C)CCCCCCCC [(16, 2, 8)] | 4 | 2 | 2 | 2 | 
CCCCCCCCCCCCCCCC[N+](C)(C)CC[N+](C)(C)CCCCCCCCCC [(16, 2, 10)] | 32 | 8 | 4 | 4 | 
CCCCCCCCCCCCCCCC[N+](C)(C)CC[N+](C)(C)CCCCCCCCCCCC [(16, 2, 12)] | 32 | 8 | 8 | 4 | 
